Measurements published in ChEMBL document CHEMBL1201862, “PubChem BioAssay data set” (2004).
Structures can show the parent of a compound that is named as a salt.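 Growth conditions: 96-well plates. Treatment: test compound, 48 hours, 5 concentrations. Analysis: linear interpolation between bracketing concentrations; unreached endpoints set to highest concentration. GI50: concentration for 50% inhibition of growth.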 Calls of active or inactive are those of the source. No stated cut-off is given here; in the data, active = GI50 up to about 1.1 µM and inactive = higher.

Tests used:
Test in all cases: NCI anticancer screen, dose series, 48 h
ACHN = system: ACHN
HOP-62 = system: HOP-62
SK-MEL-5 = system: SK-MEL-5
Malme-3M = system: Malme-3M
NCI-H522 = system: NCI-H522
OVCAR-8 = system: OVCAR-8
OVCAR-3 = system: OVCAR-3
MCF7 = system: MCF7
HOP-92 = system: HOP-92
NCI-H226 = system: NCI-H226
SK-MEL-28 = system: SK-MEL-28
BT-549 = system: BT-549
T47D = system: T47D
SF-539 = system: SF-539
MDA-N = system: MDA-N
SF-295 = system: SF-295
COLO 205 = system: COLO 205

SMILES	GI50 (ACHN)	GI50 (HOP-62)	GI50 (SK-MEL-5)	GI50 (Malme-3M)	GI50 (NCI-H522)	GI50 (OVCAR-8)	GI50 (OVCAR-3)	GI50 (MCF7)	GI50 (HOP-92)	GI50 (NCI-H226)	GI50 (SK-MEL-28)	GI50 (BT-549)	GI50 (T47D)	GI50 (SF-539)	GI50 (MDA-N)	GI50 (SF-295)	GI50 (COLO 205)
CCOC(=O)c1c(-c2cccc(Cl)c2)c(C(=O)OC)c(C)c2sc(C=O)nc12	16.8 µM (inactive)	13.6 µM (inactive)	14.3 µM (inactive)	19.3 µM (inactive)	16 µM (inactive)	19.8 µM (inactive)	15.2 µM (inactive)	17.8 µM (inactive)	15.7 µM (inactive)	21.8 µM (inactive)	18 µM (inactive)	17.3 µM (inactive)	14.8 µM (inactive)	18.1 µM (inactive)	19.9 µM (inactive)	15.8 µM (inactive)	17.5 µM (inactive)
CCOC(=O)/C(SC#N)=C(/N)N1CCCC1	> 100 µM (inactive)	> 100 µM (inactive)	> 100 µM (inactive)	> 100 µM (inactive)	> 100 µM (inactive)	> 100 µM (inactive)	> 100 µM (inactive)	> 100 µM (inactive)	> 100 µM (inactive)	> 100 µM (inactive)	> 100 µM (inactive)	> 100 µM (inactive)	> 100 µM (inactive)	> 100 µM (inactive)	> 100 µM (inactive)	> 100 µM (inactive)	> 100 µM (inactive)
COc1cc(OC2OC(CO)C(O)C(O)C2O)c2c(O)c3c(=O)cc(C)oc3cc2c1 (centres undefined)	> 100 µM (inactive)	> 100 µM (inactive)	> 100 µM (inactive)	67.1 µM (inactive)	> 100 µM (inactive)	> 100 µM (inactive)	> 100 µM (inactive)	> 100 µM (inactive)	> 10 µM (inactive)	9.55 µM (inactive)	> 100 µM (inactive)	29.5 µM (inactive)	> 100 µM (inactive)	94 µM (inactive)	> 10 µM (inactive)	65.5 µM (inactive)	> 100 µM (inactive)
CNC(=S)N/N=C(\C)c1nc2cccnc2[nH]1	38.9 µM (inactive)	25.6 µM (inactive)	29.2 µM (inactive)	> 70.5 µM (inactive)	22.8 µM (inactive)	48.9 µM (inactive)	18.6 µM (inactive)	34.3 µM (inactive)	20.6 µM (inactive)	38.1 µM (inactive)	82.6 µM (inactive)	27.9 µM (inactive)	43.5 µM (inactive)	27.7 µM (inactive)	> 100 µM (inactive)	30.3 µM (inactive)	33.5 µM (inactive)
Oc1ccc(C(=C(Br)c2ccccc2)c2ccc(O)cc2)cc1	9.16 µM (inactive)	10.4 µM (inactive)	3.47 µM (inactive)	5.52 µM (inactive)	4.47 µM (inactive)	6.58 µM (inactive)	3.15 µM (inactive)	3.13 µM (inactive)	10 µM (inactive)	15.8 µM (inactive)	10.4 µM (inactive)	4.44 µM (inactive)	10.7 µM (inactive)	6.18 µM (inactive)	1.83 µM (inactive)	6.14 µM (inactive)	3.73 µM (inactive)
OC[P+](CO)(CO)C12CC3CC(CC(C3)C1)C2	> 100 µM (inactive)	> 100 µM (inactive)	> 100 µM (inactive)	> 100 µM (inactive)	> 70.8 µM (inactive)	> 100 µM (inactive)	> 87.9 µM (inactive)	> 100 µM (inactive)	> 86.9 µM (inactive)	> 100 µM (inactive)	> 100 µM (inactive)	> 100 µM (inactive)	> 100 µM (inactive)	> 100 µM (inactive)	> 100 µM (inactive)	> 30.1 µM (inactive)	> 100 µM (inactive)
COc1ccc2c(c1)Cc1c(NCCN(C)C)ccc(C(=O)NCCCN(C)CCCNC(=O)c3ccc(NCCN(C)C)c4c3Nc3ccc(OC)cc3C4)c1N2	0.0343 µM (active)	< 0.01 µM (active)	0.0299 µM (active)	< 0.01 µM (active)	< 0.01 µM (active)	< 0.01 µM (active)	< 0.0187 µM (active)	< 0.01 µM (active)	0.143 µM (active)	< 0.0254 µM (active)	0.142 µM (active)	0.148 µM (active)	0.15 µM (active)	0.209 µM (active)	< 0.01 µM (active)	0.0213 µM (active)	< 0.01 µM (active)
CC1(C)CC(=O)c2c(nc3c4c([nH]c(-c5ccc([N+](=O)[O-])cc5)c24)CC(C)(C)C3)C1	28 µM (inactive)	> 100 µM (inactive)	26.2 µM (inactive)	> 100 µM (inactive)	48.5 µM (inactive)	38.3 µM (inactive)	85.5 µM (inactive)	27.7 µM (inactive)	19.9 µM (inactive)	43.8 µM (inactive)	60.8 µM (inactive)	34 µM (inactive)	26.9 µM (inactive)	65.3 µM (inactive)	33 µM (inactive)	30 µM (inactive)	17 µM (inactive)
COc1ccc(C2=C(N)c3c(Cl)cccc3C2=O)cc1	> 100 µM (inactive)	70 µM (inactive)	> 100 µM (inactive)	> 100 µM (inactive)	> 100 µM (inactive)	53.1 µM (inactive)	> 100 µM (inactive)	> 100 µM (inactive)	34.9 µM (inactive)	> 100 µM (inactive)	> 100 µM (inactive)	> 100 µM (inactive)	78 µM (inactive)	> 100 µM (inactive)	> 100 µM (inactive)	> 100 µM (inactive)	> 100 µM (inactive)
Cn1c(=O)c2nc3c(=O)n(C)c(=O)n(CC(N)=O)c3nc2n(C)c1=O	> 100 µM (inactive)	> 100 µM (inactive)	> 100 µM (inactive)	> 100 µM (inactive)	> 100 µM (inactive)	> 100 µM (inactive)	> 100 µM (inactive)	> 100 µM (inactive)	> 100 µM (inactive)	> 100 µM (inactive)	> 100 µM (inactive)	> 100 µM (inactive)	> 100 µM (inactive)	> 100 µM (inactive)	> 100 µM (inactive)	> 100 µM (inactive)	> 100 µM (inactive)
O=C(Cc1ccccc1)Nc1nc2ccc(Cl)cc2c2nc(-c3ccco3)nn12	5.02 µM (inactive)	16.4 µM (inactive)	89.5 µM (inactive)	53.7 µM (inactive)	> 100 µM (inactive)	> 57.9 µM (inactive)	> 100 µM (inactive)	4.46 µM (inactive)	2.48 µM (inactive)	> 35.6 µM (inactive)	> 100 µM (inactive)	> 100 µM (inactive)	> 100 µM (inactive)	7.69 µM (inactive)	> 100 µM (inactive)	21.7 µM (inactive)	> 100 µM (inactive)
CCCCOC(=O)CC(CC(=O)OCCCC)(OC(C)=O)C(=O)OCCCC [ACETYLTRIBUTYL CITRATE]	> 200 µM (inactive)	> 200 µM (inactive)	16.1 µM (inactive)	197 µM (inactive)	47.5 µM (inactive)	> 190 µM (inactive)	> 200 µM (inactive)	39.1 µM (inactive)	72.4 µM (inactive)	24.6 µM (inactive)	> 157 µM (inactive)	> 200 µM (inactive)	48.4 µM (inactive)	> 100 µM (inactive)	> 170 µM (inactive)	91.2 µM (inactive)	60.1 µM (inactive)
